Among the data in the supplement of paper PMC6461962 are IC50 growth inhibition values, retold here.

Assay [1] concerns Pseudomonas fluorescens FW300-N2E2. A digest of the protocol: (§1)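 Growth was read as OD600 at 24 h, or at 48 h for R2A strain comparisons, after washed cells at a final OD600 of 0.02 (80 µL) were added to 384-well plates holding serially diluted inorganic ion salts or equimolar nitrilotriacetic acid complexes. Aerobic plates were shaken at 700 rpm at 30 °C, but anaerobic plates were not. IC50 was calculated with the drc R package from at least two biological replicate curves, scaled between water and growth-blocking antibiotic controls and excluding wells with precipitate.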

Assay [2] deals with Rhodanobacter sp. FW104-10B01. A digest of the protocol: as §1
Where [3] appears, read: medium / electron acceptor: N2E2 Glucose/aerobic.
[4] abbreviates: medium / electron acceptor: N2E2 Glucose/aerobic 0.25xMinerals.
Where [5] appears, read: medium / electron acceptor: N2E2 Glucose/aerobic (2).
[6] abbreviates: medium / electron acceptor: N2E2 KB/aerobic.
Where [7] appears, read: medium / electron acceptor: N2E2 LB/aerobic.
Setting [8] is: medium / electron acceptor: N2E2 LB/aerobic (2).
Where [9] appears, read: medium / electron acceptor: N2E2 LB/nitrate.
[10] abbreviates: medium / electron acceptor: N2E2 Lactate/aerobic.
[11] abbreviates: medium / electron acceptor: N2E2 R2A/aerobic.
[12] abbreviates: medium / electron acceptor: 10B01 R2A/aerobic.
[13] abbreviates: medium / electron acceptor: 10B01 R2A/nitrate.

In the case of `OP(O)(O)=S` [Sodium thiophosphate tribasic hydrate], the IC50 growth inhibition in assay [1] (setting [3]) was over 50 mM; in assay [1] (setting [4]), over 50 mM; in assay [1] (setting [5]) it was over 50 mM; in assay [1] (setting [6]), 42.2 mM; in assay [1] (setting [7]), over 50 mM; in assay [1] (setting [8]) it was 33.1 mM. For the same compound, the IC50 growth inhibition in assay [1] (setting [9]) is 21 mM; in assay [1] (setting [10]) it was over 50 mM; in assay [1] (setting [11]), over 50 mM; in assay [2] (setting [12]), over 50 mM; in assay [2] (setting [13]), over 50 mM.

For `[Ce+3].[Cl-].[Cl-].[Cl-]` [Cerium(III) chloride], the IC50 growth inhibition in assay [1] (setting [3]), in assay [1] (setting [4]), in assay [1] (setting [5]), in assay [1] (setting [6]), in assay [1] (setting [7]) and in assay [1] (setting [8]) was under 0.244 mM throughout. For the same compound, the IC50 growth inhibition in assay [1] (setting [9]), in assay [1] (setting [10]), in assay [1] (setting [11]), in assay [2] (setting [12]) and in assay [2] (setting [13]) was under 0.244 mM in each case.

As to `O.O.O.O.O.O.[Cl-].[Cl-].[Mg+2]` [Magnesium chloride hexahydrate], the IC50 growth inhibition stood at 276 mM in assay [1] (setting [3]); 431 mM in assay [1] (setting [4]); 366 mM in assay [1] (setting [5]); 354 mM in assay [1] (setting [6]); 354 mM in assay [1] (setting [7]); 360 mM in assay [1] (setting [8]). The IC50 growth inhibition in assay [1] (setting [9]) was determined as 321 mM; in assay [1] (setting [10]), 354 mM; in assay [1] (setting [11]) it was 268 mM; in assay [2] (setting [12]), 218 mM; in assay [2] (setting [13]), 141 mM.

Take `O=S([O-])[O-].[Na+].[Na+]` [sodium sulfite]: the IC50 growth inhibition in assay [1] (setting [3]) is 0.261 mM; in assay [1] (setting [4]), 0.391 mM; in assay [1] (setting [5]) it was 0.45 mM; in assay [1] (setting [6]) it was under 0.244 mM; in assay [1] (setting [7]), 7.58 mM; in assay [1] (setting [8]) it was 1.7 mM. Further, the IC50 growth inhibition in assay [1] (setting [9]) was 1.12 mM; in assay [1] (setting [10]) it was under 0.244 mM; in assay [1] (setting [11]), 31.7 mM; in assay [2] (setting [12]) it was over 500 mM; in assay [2] (setting [13]), 2 mM.

As for `[Cl-].[Na+]` [Sodium Chloride], the IC50 growth inhibition worked out at 699 mM in assay [1] (setting [3]); 708 mM in assay [1] (setting [4]); 603 mM in assay [1] (setting [5]); 660 mM in assay [1] (setting [6]); 708 mM in assay [1] (setting [7]); 718 mM in assay [1] (setting [8]). Further, the IC50 growth inhibition in assay [1] (setting [9]) amounted to 622 mM; in assay [1] (setting [10]) it was 707 mM; in assay [1] (setting [11]), 671 mM; in assay [2] (setting [12]) it was 708 mM; in assay [2] (setting [13]), 545 mM.

Regarding `[Cl-].[Cl-].[Sr+2]` [Strontium chloride], the IC50 growth inhibition in assay [1] (setting [3]) was 0.332 mM; in assay [1] (setting [4]), under 0.244 mM; in assay [1] (setting [5]), under 0.244 mM; in assay [1] (setting [6]), under 0.244 mM; in assay [1] (setting [7]) it was 27.7 mM; in assay [1] (setting [8]), 17.2 mM. Further, the IC50 growth inhibition in assay [1] (setting [9]) was 12.8 mM; in assay [1] (setting [10]), under 0.244 mM; in assay [1] (setting [11]), 261 mM; in assay [2] (setting [12]) it was 354 mM; in assay [2] (setting [13]) it was 370 mM.

Turning to `[Cl][Pt]([Cl])([Cl])[Cl]` [platinum (IV) chloride], the IC50 growth inhibition in assay [1] (setting [3]) was found to be 0.0175 mM; in assay [1] (setting [4]), 0.0175 mM; in assay [1] (setting [5]), 0.0175 mM; in assay [1] (setting [6]) it was 0.0352 mM; in assay [1] (setting [7]) it was 0.172 mM; in assay [1] (setting [8]), 0.0661 mM. The IC50 growth inhibition in assay [1] (setting [9]) was 0.0329 mM; in assay [1] (setting [10]), 0.418 mM; in assay [1] (setting [11]), 0.0861 mM; in assay [2] (setting [12]) it was 0.123 mM; in assay [2] (setting [13]), 0.0935 mM.
